In US12514858B2, “CD38 inhibitors” (Astellas Engineered Small Molecules US, Incorporated, priority 2020, dated 2026):

target: Human CD38 (Homo sapiens (Human), UniProt P28907); test: Determination of IC50 against human CD38 (CD38 Inhibitor Screening Assay Kit, glycohydrolase activity, fluorescence); assay type: biochemical; details: CD38 hydrolase enzyme, 30 min preincubation at room temperature, F-NAD substrate, excitation 300 nm, emission 410 nm; read-out: hCD38 IC50
Description: CD38 hydrolase buffer (4×) was thawed on ice and 1×CD38 hydrolase buffer was prepared by diluting 4×CD38 hydrolase buffer with water. CD38 hydrolase enzyme was diluted to […] with 1×CD38 hydrolase buffer (10 ng/well). Master mix was prepared by mixing equal volumes of water and CD38 hydrolase buffer (4×) and 10 μl of the mix was added to all the wells. Following master mix addition, 10 μl of the inhibitors and 20 μl of CD38 hydrolase enzyme were added to the wells. For wells designated blank, 10 μl and 20 μl of 1× CD38 hydrolase buffer was added respectively in place of […]. The plate was covered and incubated 30 min at room temperature with slow shaking at 400 rpm. After 30 min incubation, the plate was removed and 10 μl of diluted F-NAD substrate was added to all the wells. The plate is incubated for 10 min, spun at 1200 rpm for 30 secs to remove bubbles and read in Tecan Spark using a fluorometer setting of excitation 300 nm and emission 410 nm. The reading for the blank was subtracted from all the values. IC50 for the test compounds were determined by using Graphpad prism software v7.0.

Chain of Human CD38 (P28907 whole entry): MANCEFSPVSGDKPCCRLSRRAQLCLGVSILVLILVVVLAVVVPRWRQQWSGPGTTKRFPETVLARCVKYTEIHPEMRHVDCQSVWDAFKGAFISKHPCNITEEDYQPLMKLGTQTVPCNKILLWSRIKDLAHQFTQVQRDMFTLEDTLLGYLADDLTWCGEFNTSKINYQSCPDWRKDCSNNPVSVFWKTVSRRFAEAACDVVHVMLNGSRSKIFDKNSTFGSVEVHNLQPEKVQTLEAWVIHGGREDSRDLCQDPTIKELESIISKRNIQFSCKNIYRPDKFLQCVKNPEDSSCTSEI

IC50 | SMILES
15 nM | COCCO[C@H]1CC[C@H](NC(=O)c2cc(CO)nc(-n3ccnc3)n2)CC1 [Ex. 49, 6-(hydroxymethyl)-2-(1H-imidazol-1-yl)-N-((1r,4r)-4-(2-methoxyethoxy)cyclohexyl)pyrimidine-4-carboxamide]
16 nM | O=C(N[C@H]1CC[C@H](OC(F)F)CC1)c1ccnc(-n2ccnc2)n1 [Ex. 41, N-((1r,4r)-4-(difluoromethoxy)cyclohexyl)-2-(1H-imidazol-1-yl)pyrimidine-4-carboxamide]
54 nM | O=C(N[C@H]1CC[C@H](O)CC1)c1cccc(-n2ccnc2)n1 [Ex. 31, N-((1r,4r)-4-hydroxycyclohexyl)-6-(1H-imidazol-1-yl)picolinamide]
10000 nM | COCCO[C@H]1CC[C@H](NC(=O)c2cccc(-c3cncs3)n2)CC1 [Ex. 9, N-((1r,4r)-4-(2-methoxyethoxy)cyclohexyl)-6-(thiazol-5-yl)picolinamide]
17 nM | COCCO[C@H]1CC[C@H](NC(=O)c2cc(CF)nc(-n3ccnc3)n2)CC1 [Ex. 51, 6-(fluoromethyl)-2-(1H-imidazol-1-yl)-N-((1r,4r)-4-(2-methoxyethoxy)cyclohexyl)pyrimidine-4-carboxamide]
227 nM | COCCO[C@H]1C[C@H](NC(=O)c2ccnc(-n3ccnc3)n2)C1 [Ex. 65, 2-(1H-imidazol-1-yl)-N-((1r,3r)-3-(2-methoxyethoxy)cyclobutyl)pyrimidine-4-carboxamide]
310 nM | COCCO[C@H]1CC[C@H](NC(=O)c2cc(C(C)O)cc(-n3ccnc3)n2)CC1 (stereo partly shown) [Ex. 38, 4-(1-Hydroxyethyl)-6-(1H-imidazol-1-yl)-N-((1r,4r)-4-(2-methoxyethoxy)cyclohexyl)picolinamide]
28 nM | COCCO[C@H]1CC[C@H](NC(=O)c2cc(C(=O)O)nc(-n3ccnc3)n2)CC1 [Ex. 45]
256 nM | COCCO[C@H]1CC[C@H](NC(=O)c2cc(-c3cncs3)nc(-c3cncs3)n2)CC1 [Ex. 5, N-((1r,4r)-4-(2-methoxyethoxy)cyclohexyl)-2,6-di(thiazol-5-yl)pyrimidine-4-carboxamide]
137 nM | COCCO[C@H]1CC[C@H](NC(=O)c2cc(S(C)(=O)=O)cc(-n3ccnc3)n2)CC1 [Ex. 39, 6-(1H-imidazol-1-yl)-N-((1r,4r)-4-(2-methoxyethoxy)cyclohexyl)-4-(methylsulfonyl)picolinamide]
45.9 nM | COCCO[C@H]1CC[C@H](NC(=O)c2cc(C(F)(F)F)cc(-n3ccnc3)n2)CC1 [Ex. 19, 6-(1H-imidazol-1-yl)-N-((1r,4r)-4-(2-methoxyethoxy)cyclohexyl)-4-(trifluoromethyl)picolinamide]
50 nM | COCCO[C@H]1CC[C@H](NC(=O)c2cc(C3CC3)nc(-n3ccnc3)n2)CC1 [Ex. 56, 6-cyclopropyl-2-(1H-imidazol-1-yl)-N-((1r,4r)-4-(2-methoxyethoxy)cyclohexyl) pyrimidine-4-carboxamide]
17 nM | COCCO[C@H]1CC[C@H](NC(=O)c2cc(C#N)cc(-n3ccnc3)n2)CC1 [Ex. 43, 4-Cyano-6-(1H-imidazol-1-yl)-N-((1r,4r)-4-(2-methoxyethoxy)cyclohexyl)picolinamide]
31 nM | COCCO[C@H]1CC[C@H](NC(=O)c2cc(C)cc(-n3ccnc3)n2)CC1 [Ex. 29, 6-(1H-imidazol-1-yl)-N-((1r,4r)-4-(2-methoxyethoxy)cyclohexyl)-4-methylpicolinamide]
24 nM | COCCO[C@H]1CC[C@H](NC(=O)c2cc(-c3c(C)nn(C)c3C)cc(-n3ccnc3)n2)CC1 [Ex. 14, 6-(1H-imidazol-1-yl)-N-((1r,4r)-4-(2-methoxyethoxy)cyclohexyl)-4-(1,3,5-trimethyl-1H-pyrazol-4-yl)picolinamide]
3500 nM | COCCO[C@H]1CC[C@H](NC(=O)c2cc(-c3cncs3)nc(C(F)(F)F)c2)CC1 [Ex. 4, N-((1r,4r)-4-(2-methoxyethoxy)cyclohexyl)-2-(thiazol-5-yl)-6-(trifluoromethyl)isonicotinamide]
25.7 nM | O=C(N[C@H]1CC[C@H](O)CC1)c1ccnc(-n2ccnc2)n1 [Ex. 34, N-((1r,4r)-4-hydroxycyclohexyl)-2-(1H-imidazol-1-yl)pyrimidine-4-carboxamide]
14 nM | [2H]c1nc([2H])n(-c2nc(C)cc(C(=O)N[C@H]3CC[C@H](OCCOC)CC3)n2)c1[2H] [Ex. 50, 2-(1H-imidazol-1-yl-d3)-N-((1r,4r)-4-(2-methoxyethoxy)cyclohexyl)-6-methylpyrimidine-4-carboxamide]
12 nM | COCCO[C@H]1CC[C@H](NC(=O)c2cc(-c3cnn(C(C)C)c3)nc(-n3ccnc3)c2)CC1 [Ex. 25, 2-(1H-imidazol-1-yl)-6-(1-isopropyl-1H-pyrazol-4-yl)-N-((1r,4r)-4-(2-methoxyethoxy)cyclohexyl)isonicotinamide]
21 nM | COCCO[C@H]1CC[C@H](NC(=O)c2cc(-c3cnn(C)c3)nc(-n3ccnc3)c2)CC1 [Ex. 23, 2-(1H-imidazol-1-yl)-N-((1r,4r)-4-(2-methoxyethoxy)cyclohexyl)-6-(1-methyl-1H-pyrazol-4-yl)isonicotinamide]
2.4 nM | COCCO[C@H]1CC[C@@H](NC(=O)c2cc(C)nc(-n3ccnc3)n2)CC1 [Ex. 60, 2-(1H-imidazol-1-yl)-N-((1s,4s)-4-(2-methoxyethoxy)cyclohexyl)-6-methylpyrimidine-4-carboxamide]
42 nM | COCCO[C@H]1CC[C@H](NC(=O)c2cc(SC)cc(-n3ccnc3)n2)CC1 [Ex. 37, 6-(1H-imidazol-1-yl)-N-((1r,4r)-4-(2-methoxyethoxy)cyclohexyl)-4-(methylthio)picolinamide]

The remaining lines, values behind:

SMILES | IC50
O=C(NC1CCCCC1)c1cccc(-n2ccnc2)n1 [Ex. 32, N-cyclohexyl-6-(1H-imidazol-1-yl)picolinamide] | 53 nM
COCCO[C@H]1CC[C@H](NC(=O)c2cc(F)cc(-n3ccnc3)n2)CC1 [Ex. 20, 4-fluoro-6-(1H-imidazol-1-yl)-N-((1r,4r)-4-(2-methoxyethoxy)cyclohexyl)picolinamide] | 21.5 nM
COCCO[C@H]1CC[C@H](NC(=O)c2cc(C)nc(-n3ccnc3)n2)CC1 [Ex. 35, 2-(1H-imidazol-1-yl)-N-((1r,4r)-4-(2-methoxyethoxy)cyclohexyl)-6-methylpyrimidine-4-carboxamide] | 7.4 nM
CCO[C@H]1CC[C@H](NC(=O)c2ccnc(-n3ccnc3)n2)CC1 [Ex. 58, N-((1r,4r)-4-ethoxycyclohexyl)-2-(1H-imidazol-1-yl)pyrimidine-4-carboxamide] | 16.5 nM
COCCO[C@H]1CC[C@H](NC(=O)c2cc(C(F)(F)F)nc(-n3ccnc3)n2)CC1 [Ex. 36, 2-(1H-imidazol-1-yl)-N-((1r,4r)-4-(2-methoxyethoxy)cyclohexyl)-6-(trifluoromethyl)pyrimidine-4-carboxamide] | 39 nM
COCCO[C@H]1CC[C@H](NC(=O)c2cccc(-n3ccnc3)n2)CC1 [Ex 11, 6-(1H-imidazol-1-yl)-N-((1r,4r)-4-(2-methoxyethoxy)cyclohexyl)picolinamide] | 49 nM
CCn1cc(-c2cc(C(=O)N[C@H]3CC[C@H](OCCOC)CC3)cc(-n3ccnc3)n2)cn1 [Ex. 24, 2-(1-ethyl-1H-pyrazol-4-yl)-6-(1H-imidazol-1-yl)-N-((1r,4r)-4-(2-methoxyethoxy)cyclohexyl)isonicotinamide] | 153 nM
COCCO[C@H]1CC[C@H](NC(=O)c2cc(-c3ccn(C)n3)nc(-n3ccnc3)c2)CC1 [Ex. 26, 2-(1H-imidazol-1-yl)-N-((1r,4r)-4-(2-methoxyethoxy)cyclohexyl)-6-(1-methyl-1H-pyrazol-3-yl)isonicotinamide] | 150 nM
COCCO[C@H]1CC[C@H](NC(=O)c2cc(-c3cncs3)nc(-n3ccnc3)c2)CC1 [Ex. 1, N-((1r,4r)-4-(2-methoxyethoxy)cyclohexyl)-2-(thiazol-5-yl)-6-(1H-imidazol-1-yl)isonicotinamide] | 60 nM
COCCO[C@H]1CC[C@H](NC(=O)c2cc(-n3ccnc3)nc(-n3ccnc3)c2)CC1 [Ex. 22, 2,6-di(1H-imidazol-1-yl)-N-((1r,4r)-4-(2-methoxyethoxy)cyclohexyl)isonicotinamide] | 17.9 nM
COCCO[C@H]1CC[C@H](NC(=O)c2cc(-n3ccnc3)cc(-c3cnn(C)c3)n2)CC1 [Ex. 30, 4-(1H-imidazol-1-yl)-N-((1r,4r)-4-(2-methoxyethoxy)cyclohexyl)-6-(1-methyl-1H-pyrazol-4-yl)picolinamide] | 429 nM
Cc1cc(C(=O)N[C@H]2CC[C@H](OCCO)CC2)nc(-n2ccnc2)n1 [Ex. 44, N-((1r,4r)-4-(2-hydroxyethoxy)cyclohexyl)-2-(1H-imidazol-1-yl)-6-methylpyrimidine-4-carboxamide] | 12 nM
COCCO[C@H]1CC[C@H](NC(=O)c2cc(C(C)(C)O)cc(-n3ccnc3)n2)CC1 [Ex. 40, 4-(2-Hydroxypropan-2-yl)-6-(1H-imidazol-1-yl)-N-((1r,4r)-4-(2-methoxyethoxy)cyclohexyl)picolinamide] | 1900 nM
COCCO[C@H]1CC[C@H](NC(=O)c2cc(-c3cnn(C)c3)cc(-c3cncs3)n2)CC1 [Ex. 8, N-((1r,4r)-4-(2-methoxyethoxy)cyclohexyl)-4-(1-methyl-1H-pyrazol-4-yl)-6-(thiazol-5-yl)picolinamide] | 286 nM
COCCO[C@H]1CC[C@H](NC(=O)c2cc(Cl)cc(-n3ccnc3)n2)CC1 [Ex. 18, 4-chloro-6-(1H-imidazol-1-yl)-N-((1r,4r)-4-(2-methoxyethoxy)cyclohexyl)-picolinamide] | 16 nM
